According to publication PMC6830257, “Optimisation of novel 4, 8-disubstituted dihydropyrimido[5,4-b][1,4]oxazine derivatives as potent GPR 119 agonists” (Journal of Enzyme Inhibition and Medicinal Chemistry, 2019):
Read-outs that look alike come from different tables or passages of the source.

Experiments:
human GPR119 = target: T1, human GPR119 (Homo sapiens, UniProt Q8TDV5); experiment: hGPR119 agonistic activity, LANCE Ultra cAMP accumulation assay in CHO K1 cells stably expressing human GPR119; format: cell-based; settings: for Emax: CHO-K1, 1 h, read-out: GPR119 activation %max (inherent activity)
T1 construct: expressed in transfected cells; host or cells: CHO K1
T1 sequence (Q8TDV5 1-335): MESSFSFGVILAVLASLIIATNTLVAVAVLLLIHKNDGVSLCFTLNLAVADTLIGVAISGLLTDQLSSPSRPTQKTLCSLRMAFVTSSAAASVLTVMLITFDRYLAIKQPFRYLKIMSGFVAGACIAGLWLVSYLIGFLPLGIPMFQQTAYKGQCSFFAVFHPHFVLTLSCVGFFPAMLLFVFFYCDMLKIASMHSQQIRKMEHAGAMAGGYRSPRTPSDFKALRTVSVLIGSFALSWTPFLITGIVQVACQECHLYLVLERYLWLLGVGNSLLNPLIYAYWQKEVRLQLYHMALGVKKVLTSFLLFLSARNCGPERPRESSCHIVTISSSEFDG
Protocol: CHO K1 cells stably transfected with human GPR119 were grown at 37 °C, […] and 5% CO2 in 75 cm flasks containing DMEM/F12 (1:1) media with added 10% FBS (Gibco®), Geneticin (Gibco®) and grown until 90% confluent. Cells were then washed (PBS), lifted with cell dissociation solution (Invtrogen®), counted and used for cAMP accumulation assays and/or passaging (1:10). Following the manufacturer’s instructions for the LANCE® Ultra cAMP assay (Perkin Elmer), cell transfected with hGPR119 were centrifuged (1000 rpm, 5 min), re-suspended in cAMP assay buffer (HBSS, 0.1% BSA, 0.5 mM IBMX and 5 mM HEPES) and seeded at 5000 cells/well in optiplate-384 (Perkin Elmer). […] Cell lysis buffers (4X Eu-cAMP tracer solution and 4X ULight™-anti-cAMP solution) were added to each well, and the plates were incubated at r. t. for 1 h before being read on Envision (Perkin Elmer). The assay was performed for three replicates for each concentration.

C57BL/6N mice = experiment: oral glucose tolerance test (oGTT), single dose, in C57BL/6N mice; format: in vivo; settings: for blood glucose AUC0–120 min: mean ± SE, n = 8, vehicle 24.69 ± 3.08; for reduction of blood glucose AUC0–120 min: oGTT 3 g/kg glucose 4 h after dose, vs vehicle, C57BL/6N mice; for blood glucose reduction effect: single dose 15 and 30 mg/kg, oGTT in C57BL/6N mice
Protocol: Figure 2. Single dose of compounds 10 and 15 on oGTT in C57BL/6N mice.
AUC0–2h(mmol/L) = (BG0+BG15)×0.25/2 + (BG15+BG30)×0.25/2 + (BG30+BG60)×0.5/2 + (BG60+BG90)×0.5/2 + (BG90+BG120)×0.5/2.

GPR119 = system: GPR119; parameters: method as in PMID 30100020, PMID 30685641; settings: earlier work of the authors ref 31, 32; read-out: EC50 (GPR119 agonistic potency); cited from earlier work
mice = system: mice; parameters: method as in PMID 30100020, PMID 30685641; settings: compared with positive control ref 31, 32; cited from earlier work
[1] = cAMP stimulation % compared to maximal effect of GSK1292263
[2] = human GPR119 in CHO K1 cells, cAMP, 1 h incubation, read-out: GPR119 activation EC50

## N#Cc1ccc(N2CCOc3c(NC4CC5CCC(C4)N5CC(=O)N4CCn5c(nnc5C(F)(F)F)C4)ncnc32)c(F)c1 (stereo not drawn) [Compound 18, 3-Fluoro-4-(4-(((endo)-8-(2-oxo-2-(3-(trifluoromethyl)-5,6-dihydro-[1,2,4]triazolo[4,3-a]pyrazin-7(8H)-yl)ethyl)-8-azabicyclo[3.2.1]octan-3-yl)amino)-6,7-dihydro-8H-pyrimido[5,4-b][1,4]oxazin-8-yl)benzonitrile]
Human GPR119; [1]
  GPR119 activation %max (inherent activity): 100%
Human GPR119; [2]
  EC50: 110 nM

## CC(C)(C)OC(=O)N1CCC(Nc2ncnc3c2OCCN3c2ccc(C#N)cc2F)CC1 [Compound 12, tert-Butyl 4-((8-(4-cyano-2-fluorophenyl)-7,8-dihydro-6H-pyrimido[5,4-b][1,4]oxazin-4-yl)amino)piperidine-1-carboxylate]
Human GPR119; [1]
  Emax: 63.5%
Human GPR119; [2]
  EC50: 200 nM

## CCc1cnc(N2CCC(Nc3ncnc4c3OCCN4c3ccc(C#N)cc3F)CC2)nc1 [Compound 23, 4-(4-((1-(5-Ethylpyrimidin-2-yl)piperidin-4-yl)amino)-6,7-dihydro-8H-pyrimido[5,4-b][1,4]oxazin-8-yl)-3-fluorobenzonitrile]
Human GPR119; [1]
  Emax: 70.7%
Human GPR119; [2]
  EC50: 44 nM

## CC(C)OC(=O)N1[C@@H]2CC[C@H]1C[C@@H](Nc1ncnc3c1OCCN3c1ccc(C#N)cc1F)C2 [Compound 15, Isopropyl (endo)-3-((8-(4-cyano-2-fluorophenyl)-7,8-dihydro-6H-pyrimido[5,4-b][1,4]oxazin-4-yl)amino)-8-azabicyclo[3.2.1]octane-8-carboxylate]
Human GPR119; [1]
  GPR119 activation %max (inherent activity): 146.3%
Human GPR119; carbamate substituted derivatives, 15 vs. 22
  EC50 ratio compound 15 vs. compound 22: 10 times
Human GPR119; [2]
  EC50: 12 nM
C57BL/6N mice; 15 mg/kg single dose
  blood glucose AUC0–120 min: 21.1 ± 3.92 mmol·h/L
  reduction of blood glucose AUC0–120 min: 14.5%
C57BL/6N mice; 30 mg/kg single dose
  blood glucose AUC0–120 min: 18.9 ± 2.58 mmol·h/L
  reduction of blood glucose AUC0–120 min: 23.4%
C57BL/6N mice
  blood glucose reduction effect: dose-dependent manner

## CC(C)c1noc(N2CCC(COc3ccc(-c4ccc(S(C)(=O)=O)cc4)nc3)CC2)n1 [GSK-1292263, reference compound]
Human GPR119
  EC50: 6.6 nM

## CCc1cnc(N2[C@@H]3CC[C@H]2C[C@@H](Nc2ncnc4c2OCCN4c2ccc(C#N)cc2F)C3)nc1 [Compound 16, 4-(4-(((endo)-8-(5-Ethylpyrimidin-2-yl)-8-azabicyclo[3.2.1]octan-3-yl)amino)-6,7-dihydro-8H-pyrimido[5,4-b][1,4]oxazin-8-yl)-3-fluorobenzonitrile]
Human GPR119; [1]
  GPR119 activation %max (inherent activity): 60.5%
Human GPR119; [2]
  EC50: 130 nM

## CC(C)(C)OC(=O)N1C2CCC1CC(Nc1ncnc3c1OCCN3c1ccc(C#N)cc1F)C2 (stereo not drawn) [Compound 10, tert-Butyl (endo)-3-((8-(4-cyano-2-fluorophenyl)-7,8-dihydro-6H-pyrimido[5,4-b][1,4]oxazin-4-yl)amino)-8-azabicyclo[3.2.1]octane-8-carboxylate]
Human GPR119
  EC50: 13 nM
  Emax: 83.9%
C57BL/6N mice; 15 mg/kg single dose
  blood glucose AUC0–120 min: 22.1 ± 4.28 mmol·h/L
  reduction of blood glucose AUC0–120 min: 10.7%
C57BL/6N mice; 30 mg/kg single dose
  blood glucose AUC0–120 min: 20.1 ± 2.27 mmol·h/L
  reduction of blood glucose AUC0–120 min: 18.8%
C57BL/6N mice
  blood glucose reduction effect: dose-dependent manner

## CC(C)(C)OC(=O)N1CCN(C(=O)CN2CCC(Nc3ncnc4c3OCCN4c3ccc(C#N)cc3F)CC2)CC1 [Compound 25, tert-Butyl 4-(2-(4-((8-(4-cyano-2-fluorophenyl)-7,8-dihydro-6H-pyrimido[5,4-b][1,4]oxazin-4-yl)amino)piperidin-1-yl)acetyl)piperazine-1-carboxylate]
Human GPR119; [1]
  Emax: 100%
Human GPR119; [2]
  EC50: 90 nM

## CC(C)(C)OC(=O)N1CCN(C(=O)CN2[C@@H]3CC[C@H]2C[C@@H](Nc2ncnc4c2OCCN4c2ccc(C#N)cc2F)C3)CC1 [Compound 20, tert-Butyl 4-(2-((endo)-3-((8-(4-cyano-2-fluorophenyl)-7,8-dihydro-6H-pyrimido[5,4-b][1,4]oxazin-4-yl)amino)-8-azabicyclo[3.2.1]octan-8-yl)acetyl)piperazine-1-carboxylate]
Human GPR119; [1]
  GPR119 activation %max (inherent activity): 79.6%
Human GPR119; [2]
  EC50: 82 nM

## N#Cc1ccc(N2CCOc3c(N[C@H]4C[C@H]5CC[C@@H](C4)N5c4ncc(Cl)cn4)ncnc32)c(F)c1 [Compound 17, 4-(4-(((endo)-8-(5-Chloropyrimidin-2-yl)-8-azabicyclo[3.2.1]octan-3-yl)amino)-6,7-dihydro-8H-pyrimido[5,4-b][1,4]oxazin-8-yl)-3-fluorobenzonitrile]
Human GPR119; [1]
  GPR119 activation %max (inherent activity): 71.2%
Human GPR119; [2]
  EC50: 250 nM

## CC(C)(C)OC(=O)N1C2CCCC1CC(Nc1ncnc3c1OCCN3c1ccc(C#N)cc1F)C2 (centres unmarked) [Compound 13, tert-Butyl 3-((8-(4-cyano-2-fluorophenyl)-7,8-dihydro-6H-pyrimido[5,4-b][1,4]oxazin-4-yl)amino)-9-azabicyclo[3.3.1]nonane-9-carboxylate]
Human GPR119; [1]
  Emax: 22.7%
Human GPR119; [2]
  EC50: > 10000 nM

## CC(C)(C)OC(=O)N1C2CCC1CC(CNc1ncnc3c1OCCN3c1ccc(C#N)cc1F)C2 (stereo not drawn) [Compound 11, tert-Butyl (exo)-3-(((8-(4-cyano-2-fluorophenyl)-7,8-dihydro-6H-pyrimido[5,4-b][1,4]oxazin-4-yl)amino)methyl)-8-azabicyclo[3.2.1]octane-8-carboxylate]
Human GPR119; [1]
  Emax: 45.9%
Human GPR119; [2]
  EC50: 1800 nM

## N#Cc1ccc(N2CCOc3c(NC4CCN(c5ncc(Cl)cn5)CC4)ncnc32)c(F)c1 [Compound 24, 4-(4-((1-(5-Chloropyrimidin-2-yl)piperidin-4-yl)amino)-6,7-dihydro-8H-pyrimido[5,4-b][1,4]oxazin-8-yl)-3-fluorobenzonitrile]
Human GPR119; [1]
  Emax: 62.7%
Human GPR119; [2]
  EC50: 40 nM

## CC(C)OC(=O)N1CCC(Nc2ncnc3c2OCCN3c2ccc(C#N)cc2F)CC1 [Compound 22, Isopropyl 4-((8-(4-cyano-2-fluorophenyl)-7,8-dihydro-6H-pyrimido[5,4-b][1,4]oxazin-4-yl)amino)piperidine-1-carboxylate]
Human GPR119; [1]
  Emax: 66.1%
Human GPR119; [2]
  EC50: 120 nM

## CC(C)(C)OC(=O)N[C@@H]1CCCN(C(=O)CN2[C@@H]3CC[C@H]2C[C@@H](Nc2ncnc4c2OCCN4c2ccc(C#N)cc2F)C3)C1 [Compound 19, tert-Butyl ((R)-1-(2-((endo)-3-((8-(4-cyano-2-fluorophenyl)-7,8-dihydro-6H-pyrimido[5,4-b][1,4]oxazin-4-yl)amino)-8-azabicyclo[3.2.1]octan-8-yl)acetyl)piperidin-3-yl)carbamate]
Human GPR119; [1]
  GPR119 activation %max (inherent activity): 75.6%
Human GPR119; [2]
  EC50: 68 nM

## CC(C)(C)OC(=O)N1[C@@H]2CC[C@H]1C[C@@H](Nc1ncnc3c(Nc4ccc(C#N)cc4F)ncnc13)C2 [Compound 2]
GPR119
  EC50: 8.1 nM
mice
  glucose-lowering effect in oGTT: did not show the significant glucose-lowering effect

## CC(C)(C)OC(=O)N1[C@@H]2CC[C@H]1C[C@@H](Nc1ncnc3c(Nc4ccc(S(C)(=O)=O)cc4F)ncnc13)C2 [Compound 1]
GPR119
  EC50: 2.2 nM
mice
  glucose-lowering effect in oGTT: did not show the significant glucose-lowering effect
